The values that follow come from patent US20140243210A1, “PURIFICATION OF IMMUNOGLOBULINS USING AFFINITY CHROMATOGRAPHY AND PEPTIDE LIGANDS” (priority 2005, published 2014).

The test system of one assay is IgG. To be noted: cited from earlier work.
For assay [1], the system named is Fc fragment of human IgG (HIgG). The assay is described as follows: Secondary screening, batch format, competitive and non-competitive modes. The format is binding. To be noted: first round; for Bound %, Fc fragment, Non-competitive: 14C-Fc 1 μM in PBS; for Bound %, Fc fragment, Competitive: 14C-Fc 1 μM spiked in MEM (10% FCS, 5% TPB).
Protocol: (§1) The batch format was used in both competitive and non-competitive modes. The non-competitive mode involved screening using only pure target proteins in PBS buffer. For the competitive mode, target proteins were spiked into mammalian culture medium MEM (Minimum Essential Medium) containing 10% fetal calf serum (FCS) and 5% tryptose phosphate broth (TPB).
(§2) Two target proteins, the Fc fragment of human IgG (HIgG) and intact HIgG, were applied at a concentration of 1 μM. To carry out the secondary screening, 20 mg of the re-synthesized resins were swelled with 20% methanol for one hour, then washed thoroughly and equilibrated with PBS buffer. The beads were incubated with 400 μl of 1 μM 14C-Fc or 14C-IgG in the corresponding solutions in a 0.5 ml centrifuge filter with a 0.45 μm Durapore membrane (Millipore, Milford, Mass.) on a rotating plate for two hours. The particles were washed with PBS buffer for 15 min, and then sequentially washed for one hour each with 400 of: 1 M NaCl in PBS, then 2% acetic acid (AcOH) and 6 M guanidine chloride (GdnHCl). After centrifugation each solution was collected into scintillation fluid for radioactivity counting. The total unbound protein was determined by combining the counts of unbound protein and the wash of PBS. Finally, resins were suspended in scintillation liquid and counted for radioactivity in the same manner, allowing a total radioactivity balance.
For a further assay, the system named is intact HIgG. The assay is described as above. To be noted: for Bound %, HIgG, Competitive / Bound %, HIgG, Non-competitive (Micro-BCA): first round; for Bound %, HIgG, Competitive: 14C-HIgG 1 μM spiked in MEM (10% FCS, 5% TPB), radiolabel extent 3.6%; for Bound %, HIgG, Non-competitive (Micro-BCA): pure HIgG 1 μM in PBS; for Competitive condition, Bound / Competitive condition, Unbound / Non-competitive, Bound / Non-competitive, Unbound: second round; for Competitive condition, Bound / Competitive condition, Unbound: HIgG in MEM, radiolabel extent 2.9%; for Non-competitive, Bound / Non-competitive, Unbound: HIgG in PBS. It counts as binding, human.

A further assay has as its system HIgG. The assay is described as follows: Adsorption isotherm measurements, Langmuir model. It counts as binding, human.
[2] abbreviates: Table 6, direct Langmuir fit, 0.1 meq/g, PBS pH 7.4.
Where [3] appears, read: substitution 0.080 mmol/g, read-out: Kd.
[4] abbreviates: direct Langmuir fit, PBS pH 7.4, room temperature, peptides 0.1 meq/g, read-out: Kd, Langmuir.
Where [5] appears, read: direct Langmuir fit, PBS pH 7.4, peptides 0.1 meq/g.
Where [6] appears, read: double reciprocal curve, PBS pH 7.4, room temperature, peptides 0.1 meq/g, read-out: Kd, DR curve.
[7] abbreviates: double reciprocal curve, PBS pH 7.4, peptides 0.1 meq/g.

The Kd is the free concentration of one partner at which half of the binding sites on the other are occupied at equilibrium, for simple one-to-one binding.

“And” between values parts separate entries of the source, which are not always exact repeats. Equal values may be shown once. Read-outs that look alike come from different tables or passages of the source. No end group written: not given here.

Protocol for intact HIgG: as §1, §2

(RTY)4K2KG [TG19318 (PAM)]: the Capacity in the assay on IgG (Epoxy-activated Eupergit C30N support) was 25 mg/ml mg/ml gel.

In the case of “EPIHRSTLTALL (not fully specified) [literature peptide ligand on Amino-NuGel (Hoffman LaRoche)]”, the Capacity with IgG (Amino-NuGel support, IgG source culture) was 320 μg/g μg/g gel.

Regarding “HANGFL (not fully specified (C-terminus)) [hexapeptide ligand on Toyopearl resin]”, in assay [1], the “Bound %, Fc fragment, Non-competitive” value came to 10.23% and the “Bound %, Fc fragment, Competitive” value was 25.64%. Besides, in the assay with intact HIgG, the “Bound %, HIgG, Competitive” value worked out at 5.58% and the “Bound %, HIgG, Non-competitive (Micro-BCA)” value worked out at 10.52%.

“HDVFHT (not fully specified (C-terminus)) [hexapeptide ligand on Toyopearl resin]”: in the assay on intact HIgG, the “Competitive condition, Bound” value worked out at 8.55% and the “Competitive condition, Unbound” value was 91.45%.

For the substance “HEILYW (not fully specified (C-terminus)) [hexapeptide ligand on Toyopearl resin]”, in assay [1], the “Bound %, Fc fragment, Non-competitive” value was found to be 18.01% and the “Bound %, Fc fragment, Competitive” value is given as 3.20%. Besides, in the assay on intact HIgG, the “Bound %, HIgG, Competitive” value is reported as 5.50% and the “Bound %, HIgG, Non-competitive (Micro-BCA)” value is 9.16%.

In the case of “HFDKGF (not fully specified (C-terminus)) [hexapeptide ligand on Toyopearl resin]”, in assay [1], the “Bound %, Fc fragment, Non-competitive” value is on record as 12.95% and the “Bound %, Fc fragment, Competitive” value came out at 4.28%. In the assay on intact HIgG, the “Bound %, HIgG, Competitive” value was determined as 6.01% and the “Bound %, HIgG, Non-competitive (Micro-BCA)” value is 10.66%.

In the case of “HIQLDG (not fully specified (C-terminus)) [hexapeptide ligand on Toyopearl resin]”, in the assay with intact HIgG, the “Competitive condition, Bound” value was 10.03% and the “Competitive condition, Unbound” value is 89.97%.

Regarding HIWA (not fully specified (C-terminus)), in the assay with intact HIgG, the “Competitive condition, Bound” value was determined as 12.87%; the “Competitive condition, Unbound” value is reported as 87.13%; the “Non-competitive, Bound” value amounted to 7.90%; the “Non-competitive, Unbound” value turned out to be 92.10%.

As to “HLKWYA (not fully specified (C-terminus)) [hexapeptide ligand on Toyopearl resin]”, in the assay on intact HIgG, the “Competitive condition, Bound” value amounted to 23.47% and the “Competitive condition, Unbound” value was 76.53%.

As for “HPWYVT (not fully specified (C-terminus)) [hexapeptide ligand on Toyopearl resin]”, in the assay on intact HIgG, the “Competitive condition, Bound” value came out at 26.96% and the “Competitive condition, Unbound” value turned out to be 73.04%.

Regarding HRPKIF [HRPLIF], in assay [1], the “Bound %, Fc fragment, Non-competitive” value is 21.46% and the “Bound %, Fc fragment, Competitive” value amounted to 24.48%. Moreover, in the assay on intact HIgG, the “Bound %, HIgG, Competitive” value came out at 4.51% and the “Bound %, HIgG, Non-competitive (Micro-BCA)” value is given as 11.20%.

Turning to “HVHYYW [hexapeptide ligand on Toyopearl resin, 0.1 meq/g]”, the qm with HIgG (setting [2]) came out at 129.0 mg/g. In the assay with intact HIgG, the “Competitive condition, Unbound” value came out at 56.73%; the “Non-competitive, Bound” value is 55.49%; the “Non-competitive, Unbound” value turned out to be 44.51%.

Consider “HVWQLK (not fully specified (C-terminus)) [hexapeptide ligand on Toyopearl resin]”, for which, in the assay with intact HIgG, the “Competitive condition, Bound” value is listed as 15.05% and the “Competitive condition, Unbound” value turned out to be 84.95%.

With “HWGPTK (not fully specified (C-terminus)) [hexapeptide ligand on Toyopearl resin]”, in the assay on intact HIgG, the “Competitive condition, Bound” value is listed as 19.93%; the “Competitive condition, Unbound” value was found to be 80.07%; the “Non-competitive, Bound” value is 14.39%; the “Non-competitive, Unbound” value is 85.61%.

Take “HWIDPL (not fully specified (C-terminus)) [hexapeptide ligand on Toyopearl resin]”: in the assay on intact HIgG, the “Competitive condition, Bound” value is 19.91%; the “Competitive condition, Unbound” value amounted to 80.09%; the “Non-competitive, Bound” value was determined as 9.03%; the “Non-competitive, Unbound” value turned out to be 90.97%.

Regarding “HWRGWV [Ac-HWRGWV, acetylated HWRGWV on resin, 0.080 mmol/g]”, in the assay with HIgG (substitution 0.080 mmol/g), the qm is 130 mg/g and 130.8 mg/g. Besides, the dissociation constant Kd at HIgG (setting [3]) was determined as 3.8 µM.

Turning to “HWRGWV [hexapeptide ligand on Toyopearl AF-amino-650 M resin; 0.1 meq/g unless another substitution is stated]”, the dissociation constant Kd on HIgG (setting [4]) was 1.33 µM; at HIgG (setting [6]) it was 2.8 µM; at HIgG (substitution 0.022 mmol/g, read-out: Kd) it was 30 µM; at HIgG (substitution 0.040 mmol/g, read-out: Kd), 20.3 µM; on HIgG (setting [3]), 7.25 µM; at HIgG (substitution 0.10 mmol/g (different synthesis batch), read-out: Kd), 10.4 µM. In addition, the Kd amounted to 2.58 µM at HIgG (substitution 0.22 mmol/g, read-out: Kd) and 0.947 µM at HIgG (substitution 0.55 mmol/g, read-out: Kd). Besides, the “qm, Langmuir” value with HIgG (setting [5]) was determined as 50.0 mg/g. Also, in the assay with HIgG (setting [7]), the “qm, DR curve” value is 54.8 mg/g. Moreover, the qm in the assay with HIgG (substitution 0.022 mmol/g) was 158.1 mg/g; in the assay with HIgG (substitution 0.040 mmol/g), 147.8 mg/g; in the assay on HIgG (substitution 0.080 mmol/g), 130 mg/g and 131.8 mg/g; in the assay on HIgG (substitution 0.10 mmol/g (different synthesis batch)), 133.6 mg/g; in the assay with HIgG (substitution 0.22 mmol/g) it was 136.8 mg/g; with HIgG (substitution 0.55 mmol/g) it was 137.6 mg/g.

In the assay on HIgG (setting [2]), “HYFKFD [hexapeptide ligand on Toyopearl resin, 0.1 meq/g]” registered a qm of 126.8 mg/g. In addition, at HIgG (Table 6, direct Langmuir fit, 0.1 meq/g, PBS pH 7.4, read-out: Kd), the Kd was determined as 11.4 µM. In the assay with intact HIgG, the “Competitive condition, Unbound” value is 56.74%; the “Non-competitive, Bound” value worked out at 69.31%; the “Non-competitive, Unbound” value stood at 30.69%.

Regarding “HYGLGW (not fully specified (C-terminus)) [hexapeptide ligand on Toyopearl resin]”, in assay [1], the “Bound %, Fc fragment, Non-competitive” value is reported as 19.75% and the “Bound %, Fc fragment, Competitive” value turned out to be 4.91%. In the assay with intact HIgG, the “Bound %, HIgG, Competitive” value was found to be 14.48% and the “Bound %, HIgG, Non-competitive (Micro-BCA)” value is given as 17.89%.

For “HYIDAK (not fully specified (C-terminus)) [hexapeptide ligand on Toyopearl resin]”, in the assay on intact HIgG, the “Competitive condition, Bound” value amounted to 8.64% and the “Competitive condition, Unbound” value worked out at 91.36%.

In the case of KGEA (not fully specified (C-terminus)), in the assay on intact HIgG, the “Competitive condition, Bound” value was 7.34%; the “Competitive condition, Unbound” value is recorded as 92.66%; the “Non-competitive, Bound” value came to 6.08%; the “Non-competitive, Unbound” value turned out to be 93.92%.

With “KLQWVH (Immunoglobulin binding peptide sequence) [from KLQMVX, with the substitution of M with W and X with H]”, in the assay on intact HIgG, the “Competitive condition, Bound” value is on record as 12.15% and the “Competitive condition, Unbound” value turned out to be 87.85%.

As to “KRGFYY (Immunoglobulin binding peptide sequence) [combination of KRXXXX, KXXGX and aromatic amino acids F and YY]”, in the assay with intact HIgG, the “Competitive condition, Bound” value is 17.27% and the “Competitive condition, Unbound” value amounted to 82.73%.

On to Mannosylerythritol lipid, for which the Capacity with IgG (Poly(2-hydroxyethyl methacrylate) support) was 106 mg/g mg/g gel.

For “Protein A: protein A immobilized by the CNBr method to 4% cross-linked agarose beads (Amersham Biosciences); positive control [reference compound]”, in the assay on IgG (4% cross-link agarose), the Capacity is given as 20 mg/ml mg/ml moist gel.

With WHWRKR [reference compound], the Kd was determined as 1.39 µM on HIgG (setting [4]) and 2.47 µM on HIgG (setting [6]). For the same substance, the “qm, Langmuir” value in the assay on HIgG (setting [5]) worked out at 62.4 mg/g. Besides, the “qm, DR curve” value with HIgG (setting [7]) came out at 81.9 mg/g.

Substance “truncation of the subunit GFRKYLHFRRHLL of a multiple antigenic peptide (MAP) (Immunoglobulin binding peptide sequence)” gave a qm in the assay with HIgG (setting [2]) of 157.9 mg/g. In the assay with intact HIgG, the “Competitive condition, Unbound” value worked out at 59.13%.
